Assay results taken from ChEMBL document CHEMBL5149986, “Spliceostatins and Derivatives: Chemical Syntheses and Biological Properties of Potent Splicing Inhibitors” (J Nat Prod, 2021).
Blank lines part the entries; values can stand above or below the molecule they belong to.

Legend:
[1] = Inhibition of pre-mRNA splicing in human HeLa nuclear extract in presence of ATP; format: cell-free
[2] = system: HeLa; experiment: Potency index, ratio of test compound IC50 to Spliceostatin A IC50 for inhibition of pre-mRNA splicing in human HeLa nuclear extract in presence of ATP
[3] = Cytotoxicity against human Jurkat-TAg cells assessed as cell growth inhibition measured after 48 hrs; format: functional, cell-based
[4] = system: MCF7; experiment: Cytotoxicity against human MCF7 cells incubated for 7 to 10 days by MTS assay; format: functional; details: time 7-10 day
[5] = system: L1210; experiment: Cytotoxicity against mouse L1210 cells assessed as inhibition in cell growth; format: functional, cell-based
[6] = system: HCT-116; experiment: Cytotoxicity against human HCT-116 cells assessed as inhibition in cell growth; format: functional, cell-based
[7] = system: HCT-116/VM46; experiment: Cytotoxicity against human HCT116/VM46 cells assessed as inhibition in cell growth; format: functional, cell-based

- IC50 [1]: 20 nM
Structure (SMILES): CC(=O)O[C@@H](C)/C=C\C(=O)N[C@@H]1C[C@H](C)[C@H](C/C=C(C)/C=C/[C@H]2OC3(CC3)C[C@@]3(CO3)[C@@H]2O)O[C@@H]1C
- Ratio IC50 [2]: 2

Structure (SMILES): CC(=O)N[C@@H]1C[C@H](C)[C@H](C/C=C(C)/C=C/[C@H]2O[C@](C)(O)C[C@@]3(CO3)[C@@H]2O)O[C@@H]1C
- IC50 [3]: 1700 nM

Structure (SMILES): CC(=O)O[C@@H](C)/C=C\C(=O)N[C@@H]1C[C@H](C)[C@H](C/C=C(C)/C=C/[C@H]2O[C@](C)(O)C[C@@]3(CO3)[C@@H]2O)O[C@@H]1C
- IC50 [3]: 2 nM
- GI50 [4]: 1.1 nM
- IC50 [1]: 50 nM

Structure (SMILES): CC(=O)O[C@@H](C)/C=C\C(=O)N[C@@H]1C[C@H](C)[C@H](C/C=C(C)/C=C/[C@H]2OC(C)(C)C[C@@]3(CO3)[C@@H]2O)O[C@@H]1C
- GI50 [4]: 0.0102 nM
- IC50 [5]: 0.44 nM
- IC50 [6]: 0.56 nM
- IC50 [7]: 0.51 nM

Structure (SMILES): CC(=O)O[C@@H](C)/C=C\C(=O)N[C@@H]1C[C@H](C)[C@H](C/C=C(C)/C=C/[C@H]2O[C@](C)(O)CC3(CC3)[C@@H]2O)O[C@@H]1C
- IC50 [3]: > 4000 nM

Structure (SMILES): CC(/C=C/[C@H]1OC(C)(C)C[C@@]2(CO2)[C@@H]1O)=C\C[C@@H]1O[C@H](C)[C@H](NC(=O)/C=C\[C@H](C)OC(=O)N2CCSCC2)C[C@@H]1C
- IC50 [5]: 0.51 nM
- IC50 [6]: 0.48 nM
- IC50 [7]: 0.52 nM

Structure (SMILES): CC(=O)O[C@@H](C)/C=C\C(=O)N[C@@H]1C[C@H](C)[C@H](C/C=C(C)/C=C/[C@H]2O[C@@H](C)C[C@@]3(CO3)[C@@H]2O)O[C@@H]1C
- IC50 [3]: 1.6 nM
